Reference: patent US7473682B2, “Angiogenic peptides and uses thereof” (Ramot at Tel Aviv University Ltd., priority 2003, dated 2009)

Tests used:
[1] = system: ears of nude mice and Balb/C mice; assay: In vivo angiogenesis in a mouse-ear model; details: for Number of blood vessels in the ears of injected mice (photographs): 10 μg peptide, subcutaneous injection into ear; for Number of blood vessels: 10 μg/ear, 5 days after inoculation; for Peptide/PBS = ratio between the No. of blood vessels in the peptide-injected ear and in the PBS-injected ear: mouse ears, contralateral ear PBS
Description: In Wivo angiogenesis in a mouse-ear model—Ear angiogenesis studies were a modification of an approach described previously (Pettersson, 2000). […] Contralateral ears were injected only with PBS. […] Two days after peptide inoculation, angiogenic effect of peptides could be observed.
Histological sections—Histological sections of the mouse-ears injected with the angiogenic peptides were performed by fixing tissues in 4% buffered formalin. Sections were embedded in paraffin blocks sectioned in 4 μm thick layers and stained with hematoxolin-eosin.

mouse ischemic hind limb [2] = assay: Mouse ischemic hind limb model, blood perfusion (Laser Doppler Imager); assay type: in vivo; details: 14 and 19 days following peptide injection; for The blood perfusion ratio (in percentages) of the ischemic vs. control limbs, Mean: 10 μg
Description: (§1) Mouse ischemic hind limb model—Ischemia was created in the mouse left hind limb by ligation of the femoral artery. The right hind limb served as control. A day after the operation each of the peptides was injected into one site close to the ligation and one site distal to the ligation. Each mouse was treated with each of the peptides in a total amount of 10 μg.
Blood perfusion in ischemic mice—The percent of blood perfusion was measured using a Laser Doppler Imager (PeriMed, Sweden) at 14 and 19 days after peptides injections. The average percent perfusion of each limb was computed and expressed as the ischemic (left)/control (right) blood perfusion ratio.

HUVECs (ECs) = assay: EC (HUVEC) migration assay with synthetic peptides; assay type: cell-based, human; details: 5, 10, 20 and 50 ng/ml, 5 hours
Description: Migration assays in the presence of synthetic peptides—EC migration was evaluated as described in Example 2, hereinabove. Following typsinization, ECs (25×10^3) were incubated in migration chambers. For the chemoattactant migration assay, synthetic peptides were added to the feeder tray at 5, 10, 20, and 50 ng/ml and incubated with the cells for 5 or 15 hours. For migration activation assays, synthetic peptides at 0.1, 1, and 10 ng/ml were incubated with the cells in the migration chamber for 5 or 15 hours.
Synthetic peptides induced proliferation or migration after and under hypoxia treatment—Cell proliferation or migration assays were performed as described in Example 3, hereinabove, except that cells were divided to 3 groups: control cells, cells after exposure to hypoxia conditions or cells proliferating under hypoxia conditions. For cell proliferation assays, ECs were incubated with QF, LT and SP and MVECs were incubated with LT, SP, and YR. For cell migration assays, ECs were incubated with EBM-2 and MVECs were incubated with EBM-MV media.

mouse ischemic hind limb [3] = assay: Mouse ischemic hind limb model, physiological observations (ladder climbing); assay type: in vivo; design: key: 1 = walk and climb ... 4 = walk with difficulty, cannot climb; details: mean score of 10 mice, 10 μg; for Physiological score (ability to climb a ladder) Day 1: 1 = walk and climb ... 4 = walk with difficulties and cannot climb, day 1 post operation; for Physiological score (ability to climb a ladder) Day 4 / Physiological score (ability to climb a ladder) Day 7 / Physiological score (ability to climb a ladder) Day 10: scale 1-4; for Physiological score (ability to climb a ladder) Day 4: day 4 post operation; for Physiological score (ability to climb a ladder) Day 7: day 7 post operation; for Physiological score (ability to climb a ladder) Day 10: day 10 post operation
Description: as §1
Physiological observations—Ischemic mice were evaluated for their ability to climb a ladder on day 1, 4, 7, and 10-post operation. The scoring system was as follows: 1—walk and climb; 2—walk and climb with some difficulty, 3—walk and cannot climb the ladder; 4—walk with difficulties and cannot climb the ladder.

FLT-1 = assay: Real time PCR gene expression in MVECs, FLT-1; assay type: cell-based; design: key: increased (+); non-increased (−); details: 1 ng/ml peptide
Description: (§2) Real Time PCR—MVECs from passage 3 were incubated for 24 hours in EBM-MV supplement-free medium (starving media). Following starvation, 1 ng/ml of synthetic peptides LT, QF, SP, TR, YR, and VL and 10 ng/ml of VEGF were added to the plates. Following 1.5 or 6 hours of incubation, total RNA was extracted using TRIsol reagent (Invitrogen Life Technologies, Carlsbad Calif., USA) and 0.8 μg of the extracted RNA was used as a template for reverse transcription (Invitrogen) using random primers (SuperScript III First-Strand Synthesis System for RT-PCR (hvitrogen, Carlsbad Calif., USA) according to the manufacturer's instructions. Resulting cDNAs were subjected to real time PCR amplification using the ABI prism 7000 Sequence Detection System (Applied Biosystems, Foster City, Calif., USA). Oligonucleotide primers were designed using Primer Express Software (Applied Biosystems, Foster City, Calif., USA) according the translated region of VEGF-A (Accession No:NM_003376), VEGF-C (Accession No:NM_005429), KDR (Accession No:NM_002253), FLT-1 (Accession No:NM_002019), HIF-α (Accession No:HSU22431), and GAPDH (Accession No:NM_002046) and are listed in Table 6, hereinbelow. Briefly, a reaction mixture of 20 μl consisting of DDW, oligonucleotide primers (500 nM), cDNA (3 μl), and SYBR Green PCR master kit (Applied Biosystems, Foster City, Calif., USA) was subjected to an amplification program of 15 seconds at 95° C., and 60 seconds at 60° C. for 40 cycles. Results were analyzed using the Sequence Detector Software Version 1 (Applied Biosystenis).
(§3) Peptides effect on gene expression in MVECs—The effect of the synthetic peptides on the expression in MVECs of selected genes (VEGF-A, VEGF-C, KDR, FLT-1 and HIF-1α) related to the VEGF pathway (a major pathway that participated in angiogenic process) was tested. Synthetic peptides were added at 1 ng/ml for 1.5 and 6 hours. After incubation with peptide, RNA was extracted from MVECs and Real Time PCR was performed. Gene expression was calculated as peptide/control (cells without peptide treatment) ratio.

KDR = assay: Real time PCR gene expression in MVECs, KDR; assay type: cell-based; design: key: increased (+); non-increased (−); details: 1 ng/ml peptide
Description: as §2, §3

VEGF-A = assay: Real time PCR gene expression in MVECs, VEGF-A; assay type: cell-based; design: key: increased (+); non-increased (−); details: 1 ng/ml peptide
Description: as §2, §3

MVECs = assay: MVEC migration assay with synthetic peptides; assay type: cell-based; details: 5 hours; for Increase in MVECs migration, peptides as chemoattractants: 10 ng/ml; for MVECs migration, direct activation by peptides: 1 ng/ml
Description: MVEC migration was evaluated as described above except that MVECs from passage 3 were incubated in EBM-MV SFM. […] The presence of migratory cells was detected using the fluorescent ELISA reader at 480/520 nm (Fluostar BMG Lab Teck) as described in Example 2, hereinabove. […]

VEGF-C = assay: Real time PCR gene expression in MVECs, VEGF-C; assay type: cell-based; design: key: increased (+); non-increased (−); details: 1 ng/ml peptide
Description: as §2, §3

HIF-1α = assay: Real time PCR gene expression in MVECs, HIF-1α; assay type: cell-based; design: key: increased (+); non-increased (−); details: 1 ng/ml peptide
Description: as §2, §3

Sequence | Number of blood vessels in the ears of injected mice (photographs) [1] | Number of blood vessels [1] | Peptide/PBS = ratio between the No. of blood vessels in the peptide-injected ear and in the PBS-injected ear [1] | The blood perfusion ratio (in percentages) of the ischemic vs. control limbs, Mean (mouse ischemic hind limb [2]) [percentages] | EC migration, peptides as chemoattractants in feeder tray (HUVECs (ECs)) | Physiological score (ability to climb a ladder) Day 1 (mouse ischemic hind limb [3]) | Physiological score (ability to climb a ladder) Day 4 (mouse ischemic hind limb [3]) | Physiological score (ability to climb a ladder) Day 7 (mouse ischemic hind limb [3]) | Physiological score (ability to climb a ladder) Day 10 (mouse ischemic hind limb [3]) | FLT-1 Expression after 1.5 hours (FLT-1) | KDR Expression after 1.5 hours (KDR) | VEGF-A Expression after 1.5 hours (VEGF-A) | Increase in MVECs migration, peptides as chemoattractants (MVECs) [fold] | VEGF-C Expression after 1.5 hours (VEGF-C) | VEGF-C Expression after 6 hours (VEGF-C) | HIF Expression after 1.5 hours (HIF-1α) | HIF Expression after 6 hours (HIF-1α) | KDR Expression after 6 hours (KDR) | VEGF-A Expression after 6 hours (VEGF-A) | MVECs migration, direct activation by peptides (MVECs) [folds] | further results
LLADTTHHRPWT (Phage displayed peptide) [LT] | increased number of blood vessels | 18 | 3 | 78.275 | dose-dependent induced migration | 3.07 | 2.25 | 1.6 | 1.2 | + | − | + | 3.5 | + | + | − | − |  |  |  | 
VPWMEPAYQRFL (Phage displayed peptide) [VL] |  | 14 | 5.6 | 95.560 | smaller effect of induced migration | 2.75 | 2 | 1.6 | 1.4 | + |  | + | 2 | + | + | + | + | + | + |  | 
YPHIDSLGHWRR (Phage displayed peptide) [YR] | increased number of blood vessels | 11 | 7.6 | 104.349 |  | 2.75 | 2.5 | 1.4 | 1 | + | + | + | 2.4 |  |  | − |  | − | − | 1.8 | Percent of blood perfusion ratio, ischemic/control limb (significance) (mouse ischemic hind limb [2]): significant increase; FLT-1 Expression after 6 hours (FLT-1): −
SAHGTSTGVPWP (Phage displayed peptide) | increased number of blood vessels | 15 | 1 | 84.478 | dose-dependent induced migration | 2.85 | 2.25 | 1.75 | 1.6 | + | + | + | 2 | + | + |  |  |  |  | 2.1 | 
TLPWLEESYWRP (Phage displayed peptide) [TR] |  | 15 | 5.5 | 86.006 | smaller effect of induced migration | 3.05 | 2.5 | 1.6 | 1.4 | + |  | + | 2 | + | + | + | + | + | − | 2.6 | Vascularization of mouse ear, histology sections ([1]; 10 μg, compared to control): large blood vessel formation and neovascularization
QPWLEQAYYSTF (Phage displayed peptide) [QF] | increased number of blood vessels | 21 | 0.9 | 112.222 |  | 2.83 | 2 | 1.6 | 1.2 | + | + | + | 2.4 | + | + | + | − |  | − | 2.3 | Percent of blood perfusion ratio, ischemic/control limb (significance) (mouse ischemic hind limb [2]): significant increase; FLT-1 Expression after 6 hours (FLT-1): −
